Results: ChEMBL document CHEMBL1136234, “Cyclohexanedione herbicides are inhibitors of rat heart acetyl-CoA carboxylase” (Bioorg Med Chem Lett, 2003)

Biological target: T1, Acetyl-CoA carboxylase 1 (Rattus norvegicus, UniProt P11497)
Experiment: Inhibitory concentration against rat heart ACC by the carboxylation of acetyl-CoA with [14C]-HCO3- to form [14C]-malonyl CoA; 18-40 uM

| SMILES | IC50 [µM] |
| --- | --- |
| CCSC(C)CC1CC(=O)C(/C(CC)=N/OC/C=C/Cl)=C(O)C1 (stereo unspecified) [CLETHODIM] | 40 |
| CCC/C(=N\OCC)C1=C(O)CC(C2CCCSC2)CC1=O (stereo unspecified) | 40 |
| CCC/C(=N\OCC)C1=C(O)CC(CC(C)SCC)CC1=O (stereo unspecified) [SETHOXYDIM] | 40 |
| CC/C(=N\OC/C=C/Cl)C1=C(O)CC(C2CCOCC2)CC1=O (stereo unspecified) [TEPRALOXYDIM] | 40 |
| CCO/N=C(\CC)C1=C(O)CC(c2c(C)cc(C)cc2C)CC1=O (stereo unspecified) [TRALKOXYDIM] | 40 |

Biological target: T1, Acetyl-CoA carboxylase 1
Experiment: Inhibitory concentration against rat heart ACC by the carboxylation of acetyl-CoA with [14C]HCO3- to form [14C]-malonyl CoA

| SMILES | IC50 [µM] |
| --- | --- |
| C=CCO/N=C(\CCC)C1=C(O)C(C(=O)OC)C(C)(C)CC1=O (stereo unspecified) [ALLOXYDIM] | > 100 |
